# ChEMBL document CHEMBL3872249, “Computer design, synthesis, and bioactivity analyses of drugs like fingolimod used in the treatment of multiple sclerosis” (Bioorg Med Chem, 2017)
# How the values were obtained:
# Assay type in all cases: functional
# SK-N-SH [1] = assay: Effect on PTGDR mRNA expression in human SK-N-SH cells at EC10 by qPCR method relative to beta-actin
# SH-SY5Y [2] = assay: Effect on FASLG mRNA expression in human SH-SY5Y cells at EC10 by qPCR method relative to beta-actin
# SH-SY5Y [3] = assay: Effect on MAL mRNA expression in human SH-SY5Y cells at EC10 by qPCR method relative to beta-actin
# SH-SY5Y [4] = assay: Effect on RAF1 mRNA expression in human SH-SY5Y cells at EC10 by qPCR method relative to beta-actin
# SH-SY5Y [5] = assay: Effect on CD44 mRNA expression in human SH-SY5Y cells at EC10 by qPCR method relative to beta-actin
# SH-SY5Y [6] = assay: Effect on APP mRNA expression in human SH-SY5Y cells at EC10 by qPCR method relative to beta-actin
# SH-SY5Y [7] = assay: Effect on CYP19A1 mRNA expression in human SH-SY5Y cells at EC10 by qPCR method relative to beta-actin
# SH-SY5Y [8] = assay: Effect on GRM7 mRNA expression in human SH-SY5Y cells at EC10 by qPCR method relative to beta-actin
# U-118-MG [9] = assay: Effect on MAL mRNA expression in human U118MG cells at EC10 by qPCR method relative to beta-actin
# U-118-MG [10] = assay: Effect on RAF1 mRNA expression in human U118MG cells at EC10 by qPCR method relative to beta-actin
# U-118-MG [11] = assay: Effect on ITGB2 mRNA expression in human U118MG cells at EC10 by qPCR method relative to beta-actin
# U-118-MG [12] = assay: Effect on HLA-DRB1 mRNA expression in human U118MG cells at EC10 by qPCR method relative to beta-actin
# U-118-MG [13] = assay: Effect on APP mRNA expression in human U118MG cells at EC10 by qPCR method relative to beta-actin
# U-118-MG [14] = assay: Effect on ADRB2 mRNA expression in human U118MG cells at EC10 by qPCR method relative to beta-actin
# U-118-MG [15] = assay: Effect on OPRD1 mRNA expression in human U118MG cells at EC10 by qPCR method relative to beta-actin
# U-118-MG [16] = assay: Effect on AGT mRNA expression in human U118MG cells at EC10 by qPCR method relative to beta-actin
# SK-N-SH [17] = assay: Effect on RAF1 mRNA expression in human SK-N-SH cells at EC10 by qPCR method relative to beta-actin
# SK-N-SH [18] = assay: Effect on CD44 mRNA expression in human SK-N-SH cells at EC10 by qPCR method relative to beta-actin
# SK-N-SH [19] = assay: Effect on APP mRNA expression in human SK-N-SH cells at EC10 by qPCR method relative to beta-actin
# SK-N-SH [20] = assay: Effect on HDAC1 mRNA expression in human SK-N-SH cells at EC10 by qPCR method relative to beta-actin
# SK-N-SH [21] = assay: Effect on HIF1 mRNA expression in human SK-N-SH cells at EC10 by qPCR method relative to beta-actin
# SK-N-SH [22] = assay: Effect on GRM7 mRNA expression in human SK-N-SH cells at EC10 by qPCR method relative to beta-actin
# SH-SY5Y [23] = assay: Effect on C1S mRNA expression in human SH-SY5Y cells at EC10 by qPCR method relative to beta-actin
# SH-SY5Y [24] = assay: Effect on EDN1 mRNA expression in human SH-SY5Y cells at EC10 by qPCR method relative to beta-actin
# SH-SY5Y [25] = assay: Effect on GRM2 mRNA expression in human SH-SY5Y cells at EC10 by qPCR method relative to beta-actin
# U-118-MG [26] = assay: Effect on CD4 mRNA expression in human U118MG cells at EC10 by qPCR method relative to beta-actin
# U-118-MG [27] = assay: Effect on GRM2 mRNA expression in human U118MG cells at EC10 by qPCR method relative to beta-actin
# SK-N-SH [28] = assay: Effect on C1S mRNA expression in human SK-N-SH cells at EC10 by qPCR method relative to beta-actin
# SK-N-SH [29] = assay: Effect on CRHR1 mRNA expression in human SK-N-SH cells at EC10 by qPCR method relative to beta-actin
# SK-N-SH [30] = assay: Effect on MAPK1 mRNA expression in human SK-N-SH cells at EC10 by qPCR method relative to beta-actin
# SK-N-SH [31] = assay: Effect on GRM2 mRNA expression in human SK-N-SH cells at EC10 by qPCR method relative to beta-actin
# SH-SY5Y [32] = assay: Effect on PLP1 mRNA expression in human SH-SY5Y cells at EC10 by qPCR method relative to beta-actin
# SH-SY5Y [33] = assay: Effect on SOD1 mRNA expression in human SH-SY5Y cells at EC10 by qPCR method relative to beta-actin
# SH-SY5Y [34] = assay: Effect on TGFB2 mRNA expression in human SH-SY5Y cells at EC10 by qPCR method relative to beta-actin
# SH-SY5Y [35] = assay: Effect on CXCL9 mRNA expression in human SH-SY5Y cells at EC10 by qPCR method relative to beta-actin
# SH-SY5Y [36] = assay: Effect on TNFRSF1B mRNA expression in human SH-SY5Y cells at EC10 by qPCR method relative to beta-actin
# U-118-MG [37] = assay: Effect on PLP1 mRNA expression in human U118MG cells at EC10 by qPCR method relative to beta-actin
# U-118-MG [38] = assay: Effect on TGFB1 mRNA expression in human U118MG cells at EC10 by qPCR method relative to beta-actin
# U-118-MG [39] = assay: Effect on CXCL9 mRNA expression in human U118MG cells at EC10 by qPCR method relative to beta-actin
# U-118-MG [40] = assay: Effect on TNFRSF1A mRNA expression in human U118MG cells at EC10 by qPCR method relative to beta-actin
# U-118-MG [41] = assay: Effect on S1PR3 mRNA expression in human U118MG cells at EC10 by qPCR method relative to beta-actin
# SK-N-SH [42] = assay: Effect on PLP1 mRNA expression in human SK-N-SH cells at EC10 by qPCR method relative to beta-actin
# SK-N-SH [43] = assay: Effect on SOD1 mRNA expression in human SK-N-SH cells at EC10 by qPCR method relative to beta-actin
# SK-N-SH [44] = assay: Effect on TNFRSF1B mRNA expression in human SK-N-SH cells at EC10 by qPCR method relative to beta-actin
compound,measurement,setting,value
CCCCCCCCc1ccc(CCC(N)(CO)CO)cc1 [FINGOLIMOD],fold change (FC),SK-N-SH [1],-4.3981
same,fold change (FC),SH-SY5Y [2],-3.0525
same,fold change (FC),SH-SY5Y [3],-5.5117
same,fold change (FC),SH-SY5Y [4],-5.0718
same,fold change (FC),SH-SY5Y [5],-4.0629
same,fold change (FC),SH-SY5Y [6],-10.004
same,fold change (FC),SH-SY5Y [7],-5.8869
same,fold change (FC),SH-SY5Y [8],-5.361
same,fold change (FC),U-118-MG [9],-3.8671
same,fold change (FC),U-118-MG [10],-3.8172
same,fold change (FC),U-118-MG [11],-4.0523
same,fold change (FC),U-118-MG [12],-3.4313
same,fold change (FC),U-118-MG [13],-2.5646
same,fold change (FC),U-118-MG [14],-4.9171
same,fold change (FC),U-118-MG [15],3.818
same,fold change (FC),U-118-MG [16],5.5368
same,fold change (FC),SK-N-SH [17],-5.2666
same,fold change (FC),SK-N-SH [18],-4.3753
same,fold change (FC),SK-N-SH [19],-8.0801
same,fold change (FC),SK-N-SH [20],-6.6778
same,fold change (FC),SK-N-SH [21],-3.1808
same,fold change (FC),SK-N-SH [22],-6.2306
CCCCCCCCn1nnnc1CCC(N)(CO)CO.Cl,fold change (FC),SH-SY5Y [23],-2.6686
same,fold change (FC),SH-SY5Y [24],7.826
same,fold change (FC),SH-SY5Y [25],-4.9647
same,fold change (FC),U-118-MG [26],-3.5323
same,fold change (FC),U-118-MG [27],-3.2823
same,fold change (FC),SK-N-SH [28],-5.1582
same,fold change (FC),SK-N-SH [29],4.6448
same,fold change (FC),SK-N-SH [30],-10.5515
same,fold change (FC),SK-N-SH [31],-5.1941
CCCCCCCCn1nnnc1-c1ccc(C(O)CC(N)(CO)CO)cc1.Cl (centres undefined),fold change (FC),SH-SY5Y [32],3.7859
same,fold change (FC),SH-SY5Y [33],-3.4032
same,fold change (FC),SH-SY5Y [34],-2.8716
same,fold change (FC),SH-SY5Y [35],-3.0249
same,fold change (FC),SH-SY5Y [36],-2.9117
same,fold change (FC),U-118-MG [37],3.4958
same,fold change (FC),U-118-MG [38],-5.1404
same,fold change (FC),U-118-MG [39],-4.1536
same,fold change (FC),U-118-MG [40],-3.0144
same,fold change (FC),U-118-MG [41],-4.6278
same,fold change (FC),SK-N-SH [42],4.9417
same,fold change (FC),SK-N-SH [43],-3.3929
same,fold change (FC),SK-N-SH [44],-5.5404
